{"source": "patent US20240002391A1", "about": "“4-ALKOXYPYRROLO[2,1-F][1,2,4]TRIAZINES AND PREPARATION AND USES THEREOF” (BioSplice Therapeutics, Inc., priority 2022, published 2024)"}
{"molecular_target": "recombinant DYRK1A kinase (Homo sapiens (Human), UniProt Q13627)", "assay": "DYRK1A kinase assay (Ser/Thr 18 peptide Z-lyte FRET)", "format": "biochemical", "settings": "DYRK1A kinase activity, Z-lyte Ser/Thr 18 peptide, 15 μM ATP; method text calls the value IC50; read-out: EC50 (the source's name)", "procedure,_shortened": "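Z-lyte FRET: recombinant DYRK1A 0.25 μg/mL, ATP 15 μM, Ser/Thr 18 peptide 4 μM, with compound (11-point 1:3, 10 μM top) 1 h at room temperature, then development reagent 1 h. Coumarin/fluorescein emission ratio converted to % phosphorylation; IC50 by non-linear regression, duplicates.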", "units": {"IC50": "nM"}}
{"compound": "COc1nc(N[C@H]2CCN(C)C[C@H]2F)nn2ccc(-c3ccc4nccnc4c3)c12", "note": "[Compound 368, N-((3R,4S)-3-Fluoro-1-methylpiperidin-4-yl)-4-methoxy-5-(quinoxalin-6-yl)pyrrolo[2,1-f][1,2,4]triazin-2-amine]", "IC50": 4}
{"compound": "COc1nc(N[C@H]2CCN(CCF)C[C@H]2F)nn2ccc(-c3ccc4nccnc4c3)c12", "note": "[Compound 372, N-((3R,4S)-3-Fluoro-1-(2-fluoroethyl)piperidin-4-yl)-4-methoxy-5-(quinoxalin-6-yl)pyrrolo[2,1-f][1,2,4]triazin-2-amine]", "IC50": 4.1}
{"compound": "COc1nc(N[C@@H]2CCN(C3COC3)C[C@@H]2F)nn2ccc(-c3ccc4nccnc4c3)c12", "note": "[Compound 373, N-((3S,4R)-3-Fluoro-1-(oxetan-3-yl)piperidin-4-yl)-4-methoxy-5-(quinoxalin-6-yl)pyrrolo[2,1-f][1,2,4]triazin-2-amine]", "IC50": 2.9}
{"compound": "COc1nc(N[C@H]2CCN(C3COC3)C[C@H]2F)nn2ccc(-c3ccc4nccnc4c3)c12", "note": "[Compound 374, N-((3R,4S)-3-Fluoro-1-(oxetan-3-yl)piperidin-4-yl)-4-methoxy-5-(quinoxalin-6-yl)pyrrolo[2,1-f][1,2,4]triazin-2-amine]", "IC50": 2.9}
{"compound": "COc1nc(N[C@@H]2CCN(C)CC2(F)F)nn2ccc(-c3ccc4nccnc4c3)c12", "note": "[Compound 375, (R)—N-(3,3-Difluoro-1-methylpiperidin-4-yl)-4-methoxy-5-(quinoxalin-6-yl)pyrrolo[2,1-f][1,2,4]triazin-2-amine]", "IC50": 3.3}
{"compound": "COc1nc(N[C@@H]2CCN(C3COC3)CC2(F)F)nn2ccc(-c3ccc4nccnc4c3)c12", "note": "[Compound 379, (R)—N-(3,3-Difluoro-1-(oxetan-3-yl)piperidin-4-yl)-4-methoxy-5-(quinoxalin-6-yl)pyrrolo[2,1-f][1,2,4]triazin-2-amine]", "IC50": 3.3}
{"compound": "COc1nc(NC23CC(N)(C2)C3)nn2ccc(-c3ccc4nccnc4c3)c12", "note": "[Compound 381, N1-(4-Methoxy-5-(quinoxalin-6-yl)pyrrolo[2,1-f][1,2,4]triazin-2-yl)bicyclo[1.1.1]pentane-1,3-diamine]", "IC50": 2.5}
{"compound": "COc1nc(NC23CC(NC(C)=O)(C2)C3)nn2ccc(-c3ccc4nccnc4c3)c12", "note": "[Compound 382, N-(3-((4-Methoxy-5-(quinoxalin-6-yl)pyrrolo[2,1-f][1,2,4]triazin-2-yl)amino)bicyclo[1.1.1]pentan-1-yl)acetamide]", "IC50": 1.8}
{"compound": "COc1nc(N[C@H]2C[C@]3(CCN3C(C)=O)C2)nn2ccc(-c3ccc4nccnc4c3)c12", "note": "[Compound 383, 1-((4s,6r)-6-((4-Methoxy-5-(quinoxalin-6-yl)pyrrolo[2,1-f][1,2,4]triazin-2-yl)amino)-1-azaspiro[3.3]heptan-1-yl)ethan-1-one]", "IC50": 1.4}
{"compound": "COc1nc(NC2CC3(COC3)C2)nn2ccc(-c3ccc4nccnc4c3)c12", "note": "[Compound 385, 4-Methoxy-5-(quinoxalin-6-yl)-N-(2-oxaspiro[3.3]heptan-6-yl)pyrrolo[2,1-f][11,2,4]triazin-2-amine]", "IC50": 1.7}
{"compound": "COc1nc(NC2CC3(CCN(C(C)=O)CC3)C2)nn2ccc(-c3ccc4nccnc4c3)c12", "note": "[Compound 386, 1-(2-((4-Methoxy-5-(quinoxalin-6-yl)pyrrolo[2,1-f][1,2,4]triazin-2-yl)amino)-7-azaspiro[3.5]nonan-7-yl)ethan-1-one]", "IC50": 0.9}
{"compound": "COc1nc(N[C@H]2C[C@@H]3CN(C(C)=O)C[C@@H]3C2)nn2ccc(-c3ccc4nccnc4c3)c12", "note": "[Compound 387, 1-((3aR,5s,6aS)-5-((4-Methoxy-5-(quinoxalin-6-yl)pyrrolo[2,1-f][1,2,4]triazin-2-yl)amino)hexahydrocyclopenta[c]pyrrol-2(1H)-yl)ethan-1-one]", "IC50": 0.7}
{"compound": "COc1nc(N[C@@H]2C[C@@H]3CN(C(C)=O)C[C@@H]3C2)nn2ccc(-c3ccc4nccnc4c3)c12", "note": "[Compound 388, 1-((3aR,5r,6aS)-5-((4-Methoxy-5-(quinoxalin-6-yl)pyrrolo[2,1-f][1,2,4]triazin-2-yl)amino)hexahydrocyclopenta[c]pyrrol-2(1H)-yl)ethan-1-one]", "IC50": 1.2}
{"compound": "COc1nc(NC2CCC3(CC2)CN(C(C)=O)C3)nn2ccc(-c3ccc4nccnc4c3)c12", "note": "[Compound 389, 1-(7-((4-Methoxy-5-(quinoxalin-6-yl)pyrrolo[2,1-f][1,2,4]triazin-2-yl)amino)-2-azaspiro[3.5]nonan-2-yl)ethan-1-one]", "IC50": 1.3}
{"compound": "COc1nc(NC2CCC3(CC2)COC3)nn2ccc(-c3ccc4nccnc4c3)c12", "note": "[Compound 390, 4-Methoxy-5-(quinoxalin-6-yl)-N-(2-oxaspiro[3.5]nonan-7-yl)pyrrolo[2,1-f][1,2,4]triazin-2-amine]", "IC50": 3}
{"compound": "C[C@]1(O)C[C@H](Nc2nc(OC3COC3)c3c(-c4ccc5nccnc5c4)ccn3n2)C1", "note": "[Compound 391, cis-1-Methyl-3-((4-(oxetan-3-yloxy)-5-(quinoxalin-6-yl)pyrrolo[2,1-f][1,2,4]triazin-2-yl)amino)cyclobutan-1-ol]", "IC50": 7.2}
{"compound": "COc1nc(N[C@@H](C)c2ccccn2)nn2ccc(-c3ccn4nccc4c3)c12", "note": "[Compound 393, (S)-4-Methoxy-5-(pyrazolo[1,5-a]pyridin-5-yl)-N-(1-(pyridin-2-yl)ethyl)pyrrolo[2,1-f][1,2,4]triazin-2-amine]", "IC50": 178}
{"compound": "COc1nc(N[C@H]2C[C@@](C)(NC(=O)C3(C#N)CC3)C2)nn2ccc(-c3ccn4nccc4c3)c12", "note": "[Compound 394, 1-Cyano-N-((1s,3s)-3-((4-methoxy-5-(pyrazolo[1,5-a]pyridin-5-yl)pyrrolo[2,1-f][1,2,4]triazin-2-yl)amino)-1-methylcyclobutyl)cyclopropane-1-carboxamide]", "IC50": 2.1}
{"compound": "COc1nc(NC2CCC3(CC2)COC3)nn2ccc(-c3ccn4nccc4c3)c12", "note": "[Compound 395, 4-Methoxy-5-(pyrazolo[1,5-a]pyridin-5-yl)-N-(2-oxaspiro[3.5]nonan-7-yl)pyrrolo[2,1-f][1,2,4]triazin-2-amine]", "IC50": 6.2}
{"compound": "CNC(=O)c1cnn2ccc(-c3ccn4nc(N[C@H]5CC[C@@H](OC)CC5)nc(OC)c34)cc12", "note": "[Compound 399, 5-(4-Methoxy-2-((cis-4-methoxycyclohexyl)amino)pyrrolo[2,1-f][1,2,4]triazin-5-yl)-N-methylpyrazolo[1,5-a]pyridine-3-carboxamide]", "IC50": 3.5}
{"compound": "CNC(=O)c1cnn2ccc(-c3ccn4nc(N[C@H]5CC[C@](C)(O)CC5)nc(OC)c34)cc12", "note": "[Compound 401, 5-(2-(((1r,4r)-4-Hydroxy-4-methylcyclohexyl)amino)-4-methoxypyrrolo[2,1-f][1,2,4]triazin-5-yl)-N-methylpyrazolo[1,5-a]pyridine-3-carboxamide]", "IC50": 2.7}
{"compound": "CNC(=O)c1cnn2ccc(-c3ccn4nc(N[C@H]5CC[C@](C)(OC)CC5)nc(OC)c34)cc12", "note": "[Compound 405, 5-(4-Methoxy-2-(((1r,4r)-4-methoxy-4-methylcyclohexyl)amino)pyrrolo[2,1-f][1,2,4]triazin-5-yl)-N-methylpyrazolo[1,5-a]pyridine-3-carboxamide]", "IC50": 0.7}
{"compound": "CC[C@]1(O)CC[C@H](Nc2nc(OC)c3c(-c4cc(F)c5nccn5c4)ccn3n2)CC1", "note": "[Compound 433, (1r,4r)-1-Ethyl-4-((5-(8-fluoroimidazo[1,2-a]pyridin-6-yl)-4-methoxypyrrolo[2,1-f][1,2,4]triazin-2-yl)amino)cyclohexan-1-ol]", "IC50": 2.6}
